In patent publication US20210236582A1, “ANTIMICROBIAL COMPOSITION BASED ON POLYPHENOLS AND POLYSACCHARIDES, METHOD FOR PREPARING THEREOF AND USE OF THE SAME” (priority 2018, published 2021):
In brackets after ≈: the same amount, converted by molar mass.

How the values were obtained:
[1] = tested on: Influenza A/Puerto-Rico/8/34 (H1N1) virus; type: cell-based; conditions: for Antiviral activity against A/PR8 (H1N1) virus ΔlgTCID50 av: pronounced antiviral activity ≥ 1.50
in vitro = conditions: dog
MDCK ECACC cell line = conditions: MDCK ECACC cells, 48 h incubation, MTS

Compound	Antiviral activity against A/PR8 (H1N1) virus ΔlgTCID50 av [1]	CC50 at 48 h (in vitro)	Antiviral activity against A/PR8 (H1N1) virus IC50 av ([1]; MDCK ECACC cells, assessed after 48 h by CPE and HAR)	Cytotoxicity CC50 av (MDCK ECACC cell line)
Cc1cc2c(C(C)C)c(O)c(O)cc2c(O)c1-c1c(C)cc2c(C(C)C)c(O)c(O)cc2c1O [Apogossypol, apogossypol]	0.50	9.4 µg/mL (≈ 20.3 µM)	–	–
gossypol acetic acid	1.32	–	0.0012	3.9 µg/mL
